Among the data in ChEMBL document CHEMBL3098108, “Design, synthesis and evaluation of dual pharmacology β2-adrenoceptor agonists and PDE4 inhibitors” (Bioorg Med Chem Lett, 2014) are IC50, EC50 and Activity values, retold here.

Assay [1] addresses 3',5'-cyclic-AMP phosphodiesterase 4B (Homo sapiens, UniProt Q07343). Description: Inhibition of human recombinant PDE4B2 assessed as inhibition of cAMP hydrolysis by colorimetric assay.
For assay [2], the target named is Beta-2 adrenergic receptor (Cavia porcellus, UniProt Q8K4Z4). Description: Agonist activity at guinea pig trachea beta2-adrenergic receptor assessed as relaxation of histamine-induced tracheal ring contraction.
Assay [3] addresses Beta-2 adrenergic receptor (Cavia porcellus) (UniProt Q8K4Z4). Description: Agonist activity at guinea pig trachea beta2-adrenergic receptor assessed as relaxation of histamine-induced tracheal ring contraction in presence of ICI-118551.

Calls of active or inactive are those of the source. No cut-off for these calls is given here.

Chain of Beta-2 adrenergic receptor (Q8K4Z4 whole entry): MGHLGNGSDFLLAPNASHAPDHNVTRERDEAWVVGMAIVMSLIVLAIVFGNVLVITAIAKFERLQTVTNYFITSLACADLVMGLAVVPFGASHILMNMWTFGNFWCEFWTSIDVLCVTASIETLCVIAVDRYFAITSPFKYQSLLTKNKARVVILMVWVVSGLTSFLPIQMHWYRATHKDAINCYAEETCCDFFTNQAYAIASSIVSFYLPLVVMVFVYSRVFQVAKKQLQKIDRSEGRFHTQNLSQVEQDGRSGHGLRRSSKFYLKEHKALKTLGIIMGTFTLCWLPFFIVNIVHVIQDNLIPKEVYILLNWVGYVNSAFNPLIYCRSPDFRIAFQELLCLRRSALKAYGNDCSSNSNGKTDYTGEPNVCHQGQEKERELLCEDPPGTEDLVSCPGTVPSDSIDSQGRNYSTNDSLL
Chain of 3',5'-cyclic-AMP phosphodiesterase 4B (Q07343 whole entry): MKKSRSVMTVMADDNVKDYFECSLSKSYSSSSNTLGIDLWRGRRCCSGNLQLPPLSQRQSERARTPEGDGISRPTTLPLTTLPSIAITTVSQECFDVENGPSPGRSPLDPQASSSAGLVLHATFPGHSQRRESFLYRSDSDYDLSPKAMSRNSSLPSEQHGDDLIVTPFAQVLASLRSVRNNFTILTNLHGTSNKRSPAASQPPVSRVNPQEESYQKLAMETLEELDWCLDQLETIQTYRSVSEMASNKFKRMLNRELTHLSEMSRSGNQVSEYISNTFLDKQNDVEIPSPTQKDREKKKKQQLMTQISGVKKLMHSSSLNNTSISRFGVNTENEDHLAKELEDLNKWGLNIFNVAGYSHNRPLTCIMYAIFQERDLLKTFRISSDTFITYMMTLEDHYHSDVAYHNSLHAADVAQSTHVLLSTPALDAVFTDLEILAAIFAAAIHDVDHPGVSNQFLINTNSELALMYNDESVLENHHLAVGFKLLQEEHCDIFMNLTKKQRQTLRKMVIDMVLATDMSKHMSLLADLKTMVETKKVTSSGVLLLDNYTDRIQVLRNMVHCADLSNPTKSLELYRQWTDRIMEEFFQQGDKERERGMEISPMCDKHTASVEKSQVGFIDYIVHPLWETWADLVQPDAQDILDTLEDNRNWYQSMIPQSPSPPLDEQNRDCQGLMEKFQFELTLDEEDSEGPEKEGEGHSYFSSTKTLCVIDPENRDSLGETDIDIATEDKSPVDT
Chain of Beta-2 adrenergic receptor (Cavia porcellus) (Q8K4Z4 whole entry, looked up): as the sequence (Q8K4Z4 whole entry) above

By IC50 is commonly meant the concentration that inhibits the measured activity by half. A word on the EC50: it is the concentration giving half of the maximal effect. Take `COc1ccc(C2=NN(CCCCCOc3ccc(CC(C)NCC(O)c4ccc(O)c(NC=O)c4)cc3)C(=O)C3CCCCC23)cc1OC` (centres undefined): in assay [1], the IC50 was 118 nM. Besides, the EC50 in assay [2] stood at 12.6 nM.

For the compound `COc1ccc(C2=NN(CCCCCCOc3ccc(CC(C)NCC(O)c4ccc(O)c(NC=O)c4)cc3)C(=O)C3CCCCC23)cc1OC` (racemic), the IC50 in assay [1] stood at 104 nM. The EC50 in assay [2] was 5.02 nM.

`COc1ccc(C2=NN(CCCCCCOc3ccc(C[C@@H](C)NC[C@H](O)c4ccc(O)c(NC=O)c4)cc3)C(=O)C3CCCCC23)cc1OC` (some centres undefined): in assay [1], the concentration for half-maximal inhibition (IC50) was determined as 92 nM. Besides, the EC50 in assay [2] was 1.05 nM. Besides, the result in assay [3] was Active.

In the case of `COc1ccc(C2=NN(CCCCOc3ccc(CC(C)NCC(O)c4ccc(O)c(NC=O)c4)cc3)C(=O)C3CCCCC23)cc1OC` (centres undefined), in assay [1], the IC50 came out at 117 nM. For the same compound, in assay [2], the EC50 was 10.3 nM.
